Measured values reported in patent publication US20230114241A1, “METHODS OF TREATING EPILEPSY USING THE SAME” (Trevena, Inc., priority 2019, published 2023).

Tests used:
[1] = molecular target: T1, human sphingosine-1-phosphate receptor 1 (S1P1) (Homo sapiens, UniProt P21453); test: β-Arrestin2 recruitment assay (PathHunter), S1P1 CHO-K1 cells; assay type: cell-based
Procedure, shortened: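 CHO-K1 cells co-expressing EA-β-arrestin2 and ProLink-tagged human S1P1 plated overnight, then stimulated 60 min at 37 °C. Enzyme-fragment complementation (β-galactosidase) detected after 1 h at room temperature by luminescence; values normalized to fingolimod.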
Target sequence in this assay (P21453 whole entry, the tested form may be a part): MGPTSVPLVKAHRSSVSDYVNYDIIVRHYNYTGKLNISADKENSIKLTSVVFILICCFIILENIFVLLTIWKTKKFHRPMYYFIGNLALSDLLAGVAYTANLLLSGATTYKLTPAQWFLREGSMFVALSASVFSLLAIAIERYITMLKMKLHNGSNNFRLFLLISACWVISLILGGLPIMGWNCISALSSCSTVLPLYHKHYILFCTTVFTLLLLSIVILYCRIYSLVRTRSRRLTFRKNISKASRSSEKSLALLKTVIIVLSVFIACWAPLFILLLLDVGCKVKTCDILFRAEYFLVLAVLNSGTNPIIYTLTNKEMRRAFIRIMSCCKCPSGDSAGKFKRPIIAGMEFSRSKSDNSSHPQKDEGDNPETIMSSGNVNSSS
Target sequence in this assay (P32121 whole entry partner, the tested form may be a part): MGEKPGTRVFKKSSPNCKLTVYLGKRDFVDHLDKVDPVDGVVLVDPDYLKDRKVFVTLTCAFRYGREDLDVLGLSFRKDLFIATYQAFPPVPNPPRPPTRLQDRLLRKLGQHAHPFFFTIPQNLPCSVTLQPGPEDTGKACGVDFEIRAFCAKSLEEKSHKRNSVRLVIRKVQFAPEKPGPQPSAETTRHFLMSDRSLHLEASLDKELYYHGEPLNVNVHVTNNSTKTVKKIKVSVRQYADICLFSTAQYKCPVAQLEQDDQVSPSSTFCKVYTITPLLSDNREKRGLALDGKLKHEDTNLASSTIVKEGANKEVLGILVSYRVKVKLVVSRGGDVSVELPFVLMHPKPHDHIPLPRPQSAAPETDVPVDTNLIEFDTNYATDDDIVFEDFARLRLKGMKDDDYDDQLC

[2] = molecular target: T1, human sphingosine-1-phosphate receptor 1 (S1P1); test: Inhibition of cAMP production (HTRF cAMP HiRange), S1P1 CHO-K1 cells; assay type: cell-based
Procedure, shortened: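 CHO-K1 cells co-expressing human S1P1 (C-terminal ProLink tag) and EA-β-arrestin2, plated overnight; after 30 min compound incubation at 37 °C, intracellular cAMP measured by HTRF TR-FRET following 1 h at room temperature. Values normalized to fingolimod.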
Target sequence in this assay (P21453 whole entry, the tested form may be a part): as the sequence (P21453 whole entry, the tested form may be a part) above

[3] = CHO-K1, β-arrestin2 recruitment, efficacy normalized to maximum efficacy of fingolimod, read-out: hS1P1 B-arrestin2 SPAN
[4] = β-arrestin2 recruitment, potency, read-out: hS1P1 B-arrestin2 pEC50 (converted)
[5] = CHO-K1, inhibition of cAMP production, efficacy normalized to maximum efficacy of fingolimod, read-out: hS1P1 CAMP SPAN
[6] = inhibition of cAMP production, potency, read-out: hS1P1 CAMP pEC50 (converted)
[7] = CHO-K1, efficacy normalized to maximum efficacy of fingolimod, read-out: hS1P1 B-arrestin2 SPAN
[8] = β-arrestin2 recruitment, S1P1, read-out: hS1P1 B-arrestin2 pEC50 (converted)
[9] = CHO-K1, efficacy normalized to maximum efficacy of fingolimod, read-out: hS1P1 CAMP SPAN
[10] = inhibition of cAMP production, S1P1, read-out: hS1P1 CAMP pEC50 (converted)

Structure (SMILES) | Emax [1, 3] [%] | EC50 [1, 4] [µM] | Emax [2, 5] [%] | EC50 [2, 6] [µM] | Emax [1, 7] [%] | EC50 [1, 8] [µM] | Emax [2, 9] [%] | EC50 [2, 10] [µM] | also measured
CC(C)n1nnc2cc(-c3ncc(-c4ccccc4Br)s3)ccc21 [Compound 220, 5-(2-bromophenyl)-2-(1-isopropylbenzo-triazol-5-yl)thiazole] | < 75 | > 10 | < 75 | > 0.316 | – | – | – | – | –
C=CCn1nc2ccc(-c3nc(-c4ccccc4)no3)cc2n1 [Compound 39, 5-(3-phenyl-1,2,4-oxadiazol-5-yl)-2-(prop-2-en-1-yl)-2H-1,2,3-benzotriazole] | < 75 | > 10 | < 75 | > 0.316 | – | – | – | – | –
CCOP(=O)(Cc1ccc(-c2noc(-c3ccc4c(c3)nnn4C(C)C)n2)cc1)OCC [Compound 583, diethyl[(4-{5-[1-(propan-2-yl)-1H-1,2,3-benzotriazol-5-yl]-1,2,4-oxadiazol-3-yl}phenyl)methyl]phosphonate] | – | – | – | – | – | – | – | – | EC50 [1]: > 10 µM; Emax ([1]; CHO-K1, read-out: hS1P1 B-arrestin2 SPAN): < 75%; EC50 [2]: > 0.316 µM; Emax ([2]; CHO-K1, read-out: hS1P1 CAMP SPAN): < 75%
CSc1cccc(-c2nc(-c3ccc4c(c3)nnn4C3CCCC3)no2)c1 [Compound 47, 3-(1-cyclopentyl-1H-benzo[d][1,2,3]triazol-5-yl)-5-(3-(methylthio)phenyl)-1,2,4-oxadiazole] | < 75 | > 10 | < 75 | > 0.316 | – | – | – | – | –
Cc1ccc(-c2noc(-c3ccc4c(c3)nnn4C3CCCC3)n2)s1 [Compound 192, 1-cyclopentyl-5-[3-(5-methylthiophen-2-yl)-1,2,4-oxadiazol-5-yl]-1H-1,2,3-benzotriazole] | < 75 | > 10 | < 75 | > 0.316 | – | – | – | – | –
CCC1(CC)CC(=O)c2cc(-c3nc(-c4ccsc4)no3)ccc2O1 [Compound 468, 2,2-diethyl-6-(3-(thiophen-3-yl)-1,2,4-oxadiazol-5-yl)chroman-4-one] | – | – | – | – | > 75 | < 10 | > 75 | < 0.316 | –
COc1ccc(-c2noc(-c3ccc4c(c3)nnn4CC(C)(C)O)n2)c(C)c1 [Compound 647, 1-{5-[3-(4-methoxy-2-methylphenyl)-1,2,4-oxadiazol-5-yl]-1H-1,2,3-benzotriazol-1-yl}-2-methylpropan-2-ol] | – | – | – | – | – | – | – | < 0.316 | hS1P1 B-arrestin2 pEC50 ([1]; β-arrestin2 recruitment, S1P1): >5
O=C1CC(CO)(CO)Oc2ccc(-c3nc(-c4ccncc4)no3)cc21 [Compound 482, 2,2-bis(hydroxymethyl)-6-[3-(pyridin-4-yl)-1,2,4-oxadiazol-5-yl]-3,4-dihydro-2H-1-benzopyran-4-one] | – | – | – | – | > 75 | > 10 | < 75 | > 0.316 | –
CCC1(CC)CC(=O)c2cc(-c3nc(-c4ccccc4OC)no3)ccc2O1 [Compound 268, 2,2-diethyl-6-[3-(2-methoxyphenyl)-1,2,4-oxadiazol-5-yl]chroman-4-one] | > 75 | < 10 | > 75 | < 0.316 | – | – | – | – | –
CCCC1(CCC)CC(=O)c2cc(-c3nc(-c4cccnc4)no3)ccc2O1 [Compound 218, 2,2-dipropyl-6-[3-(pyridin-3-yl)-1,2,4-oxadiazol-5-yl]-3,4-dihydro-2H-1-benzopyran-4-one] | > 75 | > 10 | > 75 | > 0.316 | – | – | – | – | –
CC(C)Nc1ccc(-c2ncc(-c3ccc4c(c3)nnn4C(C)C)cn2)cc1C#N [Compound 596, 5-(5-(1-isopropyl-1H-benzo[d][1,2,3]triazol-5-yl)pyrimidin-2-yl)-2-(isopropyl-amino)benzonitrile] | – | – | – | – | > 75 | < 10 | < 75 | < 0.316 | –
CCC1(CC)CC(=O)c2cc(-c3nc(-c4cncc(NC(C)=O)c4)no3)ccc2O1 [Compound 538, N-(5-(5-(2,2-diethyl-4-oxochroman-6-yl)-1,2,4-oxadiazol-3-yl)pyridin-3-yl)acetamide] | – | – | – | – | < 75 | < 10 | < 75 | < 0.316 | –
N#Cc1cc(-c2nnc(-c3ccc4c(c3)CCC(=O)N4)o2)ccc1NCC1CC1 [Compound 475, 2-[(cyclopropyl-methyl)amino]-5-[5-(2-oxo-1,2,3,4-tetrahydroquinolin-6-yl)-1,3,4-oxadiazol-2-yl]benzonitrile] | – | – | – | – | < 75 | < 10 | > 75 | < 0.316 | –
CC(C)c1cc(-c2nc(-c3ccc4c(c3)nnn4C(C)C)no2)ccn1 [Compound 167, 3-(1-isopropyl-1H-benzo[d][1,2,3]triazol-5-yl)-5-(2-isopropyl-pyridin-4-yl)-1,2,4-oxadiazole] | < 75 | > 10 | < 75 | > 0.316 | – | – | – | – | –
Cc1ccncc1-c1noc(-c2ccc3ccsc3n2)n1 [Compound 376, 4-methyl-3-(5-{thieno[2,3-b]pyridin-6-yl}-1,2,4-oxadiazol-3-yl)pyridine] | – | – | – | – | < 75 | > 10 | < 75 | > 0.316 | –
CCC1(CC)CC(=O)c2cc(-c3ncc(-c4ccccn4)cn3)ccc2O1 [Compound 530, 2,2-diethyl-6-(5-(pyridin-2-yl)pyrimidin-2-yl)chroman-4-one] | – | – | – | – | > 75 | > 10 | > 75 | > 0.316 | –
CC(C)n1nnc2cc(-c3nc(-c4cccnc4)no3)ccc21 [Compound 165, 1-(propan-2-yl)-5-[3-(pyridin-3-yl)-1,2,4-oxadiazol-5-yl]-1H-1,2,3-benzotriazole] | > 75 | > 10 | > 75 | > 0.316 | – | – | – | – | –
CCC1(CC)CC(=O)c2cc(-c3nc(-c4ccc5cnccc5c4)no3)ccc2O1 [Compound 522, 2,2-diethyl-6-(3-(isoquinolin-6-yl)-1,2,4-oxadiazol-5-yl)chroman-4-one] | – | – | – | – | > 75 | > 10 | > 75 | > 0.316 | –
Cc1nc2cc(-c3nc(-c4ccc5c(c4)nnn5C(C)C)no3)ccc2[nH]1 [Compound 571, 5-[5-(2-methyl-1H-1,3-benzodiazol-5-yl)-1,2,4-oxadiazol-3-yl]-1-(propan-2-yl)-1H-1,2,3-benzotriazole] | – | – | – | – | < 75 | < 10 | > 75 | < 0.316 | –
COc1cc(NC(C)=O)ccc1-c1noc(-c2ccc3nonc3c2)n1 [Compound 533, N-{4-[5-(2,1,3-benzoxadiazol-5-yl)-1,2,4-oxadiazol-3-yl]-3-methoxy-phenyl}acetamide] | – | – | – | – | < 75 | > 10 | < 75 | > 0.316 | –
CC(C)n1nnc2cc(-c3noc(-c4ccccc4N(C)C)n3)ccc21 [Compound 615, N,N-dimethy1-2-{3-[1-(propan-2-yl)-1H-1,2,3-benzotriazol-5-yl]-1,2,4-oxadiazol-5-yl}aniline] | – | – | – | – | > 75 | < 10 | > 75 | < 0.316 | –
CCC1(CC)CC(=O)c2cc(-c3nc(-c4ccco4)no3)ccc2O1 [Compound 465, 2,2-diethyl-6-(3-(furan-2-yl)-1,2,4-oxadiazol-5-yl)chroman-4-one] | – | – | – | – | > 75 | < 10 | > 75 | < 0.316 | –
COc1ccccc1-c1csc(-c2cnc3c(ccn3C(C)C)c2)n1 [Compound 401, 2-(1-isopropyl-1H-pyrrolo[2,3-b]pyridin-5-yl)-4-(2-methoxy-phenyl)thiazole] | – | – | – | – | < 75 | > 10 | < 75 | > 0.316 | –
